Test systems include A498 renal; DU-145 prostate; IGROV1 ovarian; LOX IMVI melanoma; MALME-3M melanoma; MDA-MB-435; NCI-H226 lung; NCI-H522 lung; RPMI-8226 leukemia; SNB-75 CNS.
Holding throughout (experiment): inhibition of tumour cell growth, NCI panel, 48 h

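Results reflect a 48-hour exposure of cells in 96-well plates to compound at five concentrations. Abbreviation: GI50, concentration required for 50% inhibition of growth. TGI: total growth inhibition.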 Where only a bound is given, the exact number is not on record here.

With `COc1cccc(/C=N/NC(=S)NC2CC3CCC2C3)c1O` (centres undefined), the GI50 in the experiment on A498 renal was 3.18 µM; in the experiment with DU-145 prostate, 9.79 µM; in the experiment on IGROV1 ovarian, 10 µM; in the experiment with LOX IMVI melanoma it was 5.09 µM; in the experiment on MALME-3M melanoma, 5.65 µM; in the experiment with MDA-MB-435, 16.1 µM. The GI50 was 2.38 µM in the experiment on NCI-H226 lung, 11.5 µM in the experiment with NCI-H522 lung, 11.1 µM in the experiment on RPMI-8226 leukemia and 1.58 µM with SNB-75 CNS. Besides, the TGI stood at 12.9 µM with A498 renal; 22.8 µM in the experiment on DU-145 prostate; 35.1 µM in the experiment on IGROV1 ovarian; 18 µM in the experiment with LOX IMVI melanoma; 20 µM in the experiment with MALME-3M melanoma; 78.9 µM in the experiment on MDA-MB-435. The TGI with NCI-H226 lung came to 10.9 µM; in the experiment with NCI-H522 lung, 37.6 µM; in the experiment on RPMI-8226 leukemia, 49.7 µM; in the experiment on SNB-75 CNS it was 5.47 µM.
As to `FC(F)(F)c1ccc(-c2cnc(-n3cc(COCCN4CCCCC4)nn3)nc2NC2CCCCCC2)cc1`, the GI50 in the experiment on A498 renal is 3.56 µM; in the experiment on DU-145 prostate, 4.25 µM; in the experiment on IGROV1 ovarian, 3.9 µM; in the experiment with LOX IMVI melanoma, 3.89 µM; in the experiment with MALME-3M melanoma, 4.24 µM; with MDA-MB-435, 3.74 µM. Besides, the GI50 in the experiment on NCI-H226 lung was 3.54 µM; in the experiment on NCI-H522 lung, 3.93 µM; in the experiment with RPMI-8226 leukemia it was 3.85 µM; in the experiment on SNB-75 CNS it was 2.72 µM. For the same compound, the TGI with A498 renal stood at 7.04 µM; with DU-145 prostate, 7.94 µM; with IGROV1 ovarian, 10.2 µM; in the experiment on LOX IMVI melanoma it was 7.88 µM; in the experiment with MALME-3M melanoma, 8.47 µM; with MDA-MB-435, 7.76 µM. Besides, the TGI with NCI-H226 lung was 7.83 µM; in the experiment on NCI-H522 lung it was 7.99 µM; in the experiment on RPMI-8226 leukemia it was 9.03 µM; with SNB-75 CNS, 6.4 µM.
Regarding `Cn1nc(-c2ccc(Cl)cc2)nc2c(=O)n(C)c(=O)nc1-2`, the GI50 with A498 renal was 0.949 µM; with DU-145 prostate it was 0.89 µM; in the experiment with IGROV1 ovarian, 0.842 µM; with LOX IMVI melanoma, 0.601 µM; in the experiment on MALME-3M melanoma, 0.382 µM; in the experiment with MDA-MB-435, 0.137 µM. Moreover, the GI50 with NCI-H226 lung is 2.38 µM; in the experiment on NCI-H522 lung, 0.864 µM; with RPMI-8226 leukemia, 0.886 µM; in the experiment on SNB-75 CNS, 2.38 µM. Besides, the TGI in the experiment on A498 renal was 2.24 µM; with DU-145 prostate, 1.63 µM; in the experiment on IGROV1 ovarian it was 3.67 µM; with LOX IMVI melanoma, 1.61 µM; in the experiment on MALME-3M melanoma it was 1.14 µM; in the experiment on MDA-MB-435, 0.405 µM. For the same compound, the TGI worked out at 5.83 µM in the experiment with NCI-H226 lung, 1.67 µM with NCI-H522 lung, 2.23 µM in the experiment with RPMI-8226 leukemia and 4.68 µM with SNB-75 CNS.
Turning to `S=c1[nH]nc(Cc2ccccc2)c(=S)[nH]1`, the TGI in the experiment on A498 renal is above 81.8 µM; with DU-145 prostate, above 100 µM; in the experiment with IGROV1 ovarian, above 100 µM; in the experiment on LOX IMVI melanoma it was 99.3 µM; with MALME-3M melanoma, above 100 µM; with MDA-MB-435 it was above 100 µM. Also, the TGI in the experiment on NCI-H226 lung was above 100 µM; in the experiment on NCI-H522 lung it was above 100 µM; in the experiment on RPMI-8226 leukemia, above 100 µM; with SNB-75 CNS, 89.1 µM.
Take `NC1=NC(c2ccc(Cl)cc2)N(c2ccc(S(N)(=O)=O)cc2)C(N)=N1` (centres undefined): the TGI in the experiment on A498 renal, in the experiment on DU-145 prostate, in the experiment with IGROV1 ovarian, in the experiment on LOX IMVI melanoma, in the experiment on MALME-3M melanoma and with MDA-MB-435 was above 100 µM in each case. Besides, the TGI with NCI-H226 lung, in the experiment on NCI-H522 lung, in the experiment with RPMI-8226 leukemia and in the experiment on SNB-75 CNS was above 100 µM in each case.
For `COc1cccc(-c2nn(-c3ccccc3)cc2-c2ccnc(NCCNC(=O)Nc3cccc(C(F)(F)F)c3)c2)c1`, the GI50 with A498 renal was 2.49 µM; in the experiment on DU-145 prostate it was 4.16 µM; in the experiment on IGROV1 ovarian, 2.88 µM; in the experiment with LOX IMVI melanoma it was 1.64 µM; in the experiment on MALME-3M melanoma, 1.76 µM; in the experiment on MDA-MB-435 it was 1.75 µM. For the same compound, the GI50 in the experiment on NCI-H226 lung was 2.07 µM; in the experiment on NCI-H522 lung, 1.24 µM; in the experiment with RPMI-8226 leukemia, 2.23 µM; in the experiment with SNB-75 CNS it was 1.62 µM. In addition, the TGI in the experiment on A498 renal turned out to be 8.37 µM; with DU-145 prostate it was 14.9 µM; with IGROV1 ovarian, 9.34 µM; in the experiment with LOX IMVI melanoma, 2.99 µM; with MALME-3M melanoma it was 3.9 µM; with MDA-MB-435, 3.38 µM. Besides, the TGI in the experiment on NCI-H226 lung was 5.32 µM; in the experiment on NCI-H522 lung, 3.19 µM; in the experiment on RPMI-8226 leukemia, 5.54 µM; in the experiment with SNB-75 CNS, 12.5 µM.
As to `Cc1ccc(C(NC(=O)c2ccccc2)c2ccc3cccnc3c2O)cc1` (centres undefined), the GI50 with A498 renal was 0.376 µM; with DU-145 prostate, 0.442 µM; in the experiment on IGROV1 ovarian, 0.352 µM; with LOX IMVI melanoma, 0.15 µM; in the experiment with MALME-3M melanoma, 0.441 µM; in the experiment on MDA-MB-435 it was 0.491 µM. Moreover, the GI50 with NCI-H226 lung is 0.302 µM; in the experiment on NCI-H522 lung, 0.31 µM; in the experiment on RPMI-8226 leukemia, 0.323 µM; with SNB-75 CNS, 0.927 µM. Besides, the TGI in the experiment on A498 renal is 7.88 µM; with DU-145 prostate, 41.9 µM; with IGROV1 ovarian it was 4.95 µM; in the experiment with MALME-3M melanoma, 12.3 µM; in the experiment with MDA-MB-435, 23.4 µM; in the experiment with NCI-H226 lung, 3.69 µM. Further, the TGI stood at 2.74 µM in the experiment with NCI-H522 lung, 17.8 µM with RPMI-8226 leukemia and 60 µM with SNB-75 CNS.
Turning to `COc1ccc(C(c2ccc(OCCN(C)C)cc2)c2cc3ccccc3c3ccccc23)cc1` (centres undefined), the GI50 in the experiment with A498 renal is 0.536 µM; with DU-145 prostate it was 1.77 µM; with IGROV1 ovarian it was 1.68 µM; in the experiment with LOX IMVI melanoma, 1.64 µM; in the experiment with MALME-3M melanoma it was 1.55 µM; in the experiment with MDA-MB-435, 1.71 µM. The GI50 in the experiment with NCI-H226 lung is 3.43 µM; in the experiment on NCI-H522 lung it was 1.55 µM; in the experiment with RPMI-8226 leukemia, 1.93 µM; in the experiment with SNB-75 CNS it was 1.36 µM. Further, the TGI in the experiment with A498 renal turned out to be 20.9 µM; in the experiment on DU-145 prostate, 3.37 µM; with IGROV1 ovarian, 3.3 µM; with LOX IMVI melanoma, 3.06 µM; with MALME-3M melanoma it was 3.12 µM; in the experiment on MDA-MB-435 it was 3.14 µM. The TGI came to 15.4 µM in the experiment with NCI-H226 lung, 2.98 µM with NCI-H522 lung, 4.25 µM in the experiment on RPMI-8226 leukemia and 2.74 µM in the experiment on SNB-75 CNS.

Values taken from PubChem BioAssay (NCI).
